{
  "source": "patent US6486149B2",
  "about": "“Composition comprising a crystallographically stable, amorphous cephalosporin and processes for the preparation thereof” (Meiji Seika Kaisha Ltd., priority 1998, dated 2002)",
  "assay": "Solubility in acidic water (pH 1.2) at 37° C. (Test Example 1)",
  "format": "physicochemical",
  "details": "acidic water (pH 1.2) containing HCl, simulated gastric fluid, thermodynamic from solid, acidic water (pH 1.2) containing about 1N HCl, stirred 2 hours, filtered through 1 μm membrane, read-out: solubility of Cefditoren pivoxil in acidic water",
  "protocol": "The solid particles present in the composition of this invention were tested for the measurement of their water-solubility as shown in Test Example given hereinafter.\nThere was taken as a sample one gram of the yellow-colored powder (the composition of this invention), which was obtained in Example 6 above, and which consisted essentially of the particles as formed substantially from a homogeneous mixture comprising the amorphous substance of Cefditoren pivoxil and hydroxypropylmethyl cellulose, and in which the surface layer of said particles contained additionally hydroxypropyl cellulose. The sample so taken was placed in 250 ml of an acidic water (pH 1.2) containing about […] at 37° C. and stirred at 37° C. for 2 hours. The resulting aqueous solution was passed through a millipore (1 μm) membrane filter to remove the insoluble solid therefrom. The transparent aqueous solution here obtained, which contained Cefditoren pivoxil and the water-soluble cellulose derivatives above-mentioned as dissolved therein, was then measured in respect of the concentration of the Cefditoren pivoxil. […]",
  "data": [
    {"smiles": "CO/N=C(\\C(=O)NC1C(=O)N2C(C(=O)OCOC(=O)C(C)(C)C)=C(/C=C\\c3scnc3C)CS[C@H]12)c1csc(N)n1", "note": "(stereo partly shown) [7-[(Z)-2-(2-aminothiazol-4-yl)-2-methoxyiminoacetamido]-3-[(Z)-2-(4-methylthiazol-5-yl)ethenyl]-3-cephem-4-carboxylic acid pivaloyloxymethyl ester]", "values": [
      {"measurement": "solubility at 2 h", "value": "~400", "unit": "µg/mL"}
    ]}
  ]
}
